The values below are quoted from earlier work in PubChem BioAssay AID1259409 (Chemical Carcinogenesis Research Information System (CCRIS), 2018).

The series concerns rodent chemically induced tumor inhibition, incidence and multiplicity. The series is described as follows: CCRIS tumor inhibitor studies. The settings on record: Promoter: NONE USED.

`CC(C)NCC(O)c1ccc(O)c(O)c1` (stereo unspecified): the “tumour outcome (control, treated, inhibition, significance)” value was 10/12 (83%), 10/12 (83%), 0%, not significant (Carcinogen: 1,2-DIMETHYLHYDRAZINE DIHYDROCHLORIDE, 306-37-6, Dose [Inhibitor]: 0, 150 MG/KG BW 1/WK FOR 8 WK BEGINNING 20 D POST CARCINOGEN TREATMENT (STUDY DURATION: 26.5 WK), Route [Inhibitor]: INTRAPERITONEAL, Species: MOUSE, Strain/Sex: CF-1/FEMALE, Target Tissue: Type of Lesion: COLON: TUMOR, Dose [Carcinogen]: 20 MG/KG BW 1/WK FOR 8 WK); 12/12 (100%), 9/9 (100%), 0%, not significant (Carcinogen: 1,2-DIMETHYLHYDRAZINE DIHYDROCHLORIDE, 306-37-6, Dose [Inhibitor]: 0, 150 MG/KG BW 1/WK FOR 12 WK ADMINISTERED 39 HR POST EACH CARCINOGEN DOSE (STUDY DURATION: 28 WK), Route [Inhibitor]: INTRAPERITONEAL, Species: MOUSE, Strain/Sex: CF-1/FEMALE, Target Tissue: Type of Lesion: COLON: TUMOR, Dose [Carcinogen]: 20 MG/KG BW 1/WK FOR 12 WK); 4/9 (44%), 0/8 (0%), 100%, not calculated (Carcinogen: 1,2-DIMETHYLHYDRAZINE DIHYDROCHLORIDE, 306-37-6, Dose [Inhibitor]: 0, 150 MG/KG BW 2/WK FOR 6 WK ADMINISTERED 15 AND 39 HR AFTER EACH CARCINOGEN DOSE (STUDY DURATION: 30 WK), Route [Inhibitor]: INTRAPERITONEAL, Species: MOUSE, Strain/Sex: CF-1/FEMALE, Target Tissue: Type of Lesion: COLON: TUMOR, Dose [Carcinogen]: 20 MG/KG BW 1/WK FOR 6 WK); 12/12 (100%), 8/8 (100%), 0%, not significant (Carcinogen: 1,2-DIMETHYLHYDRAZINE DIHYDROCHLORIDE, 306-37-6, Dose [Inhibitor]: 0, 150 MG/KG BW 2/WK FOR 12 WK ADMINISTERED 15 AND 39 HR POST EACH CARCINOGEN DOSE (STUDY DURATION: 28 WK), Route [Inhibitor]: INTRAPERITONEAL, Species: MOUSE, Strain/Sex: CF-1/FEMALE, Target Tissue: Type of Lesion: COLON: TUMOR, Dose [Carcinogen]: 20 MG/KB BW 1/WK FOR 12 WK); 18/20 (90%), 10/18 (56%), 38%, p<0.05 (Carcinogen: AZOXYMETHANE, 25843-45-2, Dose [Inhibitor]: 0.5 MG/KG BW 1/2D IN OLIVE OIL BEGINNING 3 WK PRIOR TO FIRST CARCINOGEN DOSE (STUDY DURATION: 40 WK), Route [Inhibitor]: SUBCUTANEOUS, Species: RAT, Strain/Sex: WISTAR/MALE, Target Tissue: Type of Lesion: COLON: TUMOR, Dose [Carcinogen]: 7.4 MG/KG BW IN 0.9% SALINE SOLUTION 1/WK FOR 10 WK); 15/18 (83%), 9/20 (45%), 46%, p<0.05 (Carcinogen: N-METHYL-N'-NITRO-N-NITROSOGUANIDINE, 70-25-7, Dose [Inhibitor]: 0, 0.1 MG/KG IN OLIVE OIL SUSPENSION 1/D BEGINNING 1 WK POST LAST CARCINOGEN DOSE AND CONTINUING FOR DURATION OF STUDY (, Species: RAT, Strain/Sex: WISTAR/MALE, Target Tissue: Type of Lesion: GLANDULAR STOMACH: ADENOCARCINOMA, Dose [Carcinogen]: 50 UG/ML IN DRINKING WATER FOR 25 WK).
